From patent US5314999A, “Derivatives of basic polyene macrolides and their preparation” (Laboratoires Mayoly-Spindler, priority 1989, dated 1994)
Counter-ions that a name gives are not always drawn. Like-named read-outs stand apart in the source and are kept apart here.

Assays:
[1] = Toxicity on nucleated cells, mice B lymph gland cells; assay type: cell-based; conditions: mouse, 1 hour 30, trypan blue, read-out: LD 50 (concentration leading to a mortality of 50%)
Protocol: (§1) B.2: Study of the toxicity on nucleated cells
(§2) The solutions of the amphotericine B derivatives are prepared similarly to those mentioned in paragraph B.1.
(§3) The cells are prepared by placing 20 ml of blood diluted to 1/2 with 0.9% NaCl into a tube together with 10 ml of Ficoll-hypaque, and the mixture is centrifuged at 2000 rpm for 30 minutes. The cell nuclei are recovered and washed twice with PBS buffer containing 5% of foetal calf serum.
(§4) The cells are prepared by suspending 1.14×10^6 cells/ml in RPMI 1640 containing 2.5% of foetal calf serum and by filling each well with 150 μl. 50 μl of each dilution of the derivatives are added and also one control (5% glucose solution).
(§5) The cells are then incubated in a steam cabinet at a CO2 concentration of 5% for 1 hour 30 at 37° C. or at ambient temperature.
(§6) To evaluate the toxicity of the derivatives, a cell count in the presence of trypan blue is made, and the LD 50 (concentration of the derivative leading to a mortality of 50%) is calculated with respect to the control (5% glucose solution) for each concentration of each derivative.

[2] = Toxicity on red corpuscles (lysis), human; assay type: cell-based; conditions: human, red corpuscles, 37° C., 1 hour 30, read-out: LD 50 (dose which leads to lysis in 50% of the erythrocytes)
Protocol: (§7) B.1: Study of the toxicity on red corpuscles
(§8) All the solutions of the AmB derivatives according to the invention were prepared immediately before use by diluting 4 mg of substance in 100 μl of 5% glucose solution, and then, after 15 minutes protected from light, 100 μl of sterile distilled water are added, and the mixture is made up to stock solutions of 4 mg/ml with a 5% glucose solution. For comparative study of the effects of AmB, 4 mg of FUNGIZONE are diluted with 1 ml of 5% glucose.
(§9) The cells are prepared by placing 1 ml of a peripheral blood sample into a tube together with Ficollhypaque to remove the lymphocytes, and then centrifuging the mixture at 2000 rpm for 20 minutes. The remaining red corpuscles are recovered, washed once with 0.9% NaCl and then twice with 150 Mm KCl, 0.5 Mm tris-HCl, pH 7.4.
(§10) A 1.25% suspension is then prepared with 150 mM KCl solution, 0.5 mM tris-HCl, pH 7.4, and 150 μl thereof are distributed in wells along with 50 μl of each of the dilutions of the derivatives, plus a control well (5% glucose solution).
(§11) The cells are then incubated at 37° C. in a steam cabinet for 1 hour 30.
(§12) To evaluate the cell lysis, haemoglobin is essayed by removing 100 μl of the supernatant in each well and diluting the sample with 1 ml of distilled water.
(§13) The haemoglobin concentration is calculated by measuring the optical density at 540 nm and taking into account the absorption of the derivatives of amphotericine B.
(§14) LD 50 is the dose which leads to lysis in 50% of the erythrocytes (a control of 100% lysis is obtained with distilled water, and reference lysis of 0% is obtained with the 5% glucose solution).

[3] = Toxicity on nucleated cells, DAUDI human lymphoma B; assay type: cell-based; conditions: human, daudi lymphoma b cells, 1 hour 30, trypan blue, read-out: LD 50 (concentration leading to a mortality of 50%)
[4] = tested on: red corpuscles; assay: Toxicity on red corpuscles (lysis), mice; assay type: cell-based; conditions: 37° C., 1 hour 30, 90 min, 90 min, read-out: LD 50 (dose which leads to lysis in 50% of the erythrocytes)
Protocol: as §7, §8, §9, §10, §11, §12, §13, §14

[5] = Toxicity on nucleated cells, mice T lymph gland cells; assay type: cell-based; conditions: mouse, 1 hour 30, trypan blue, read-out: LD 50 (concentration leading to a mortality of 50%)
Protocol: as §1, §2, §3, §4, §5, §6

[6] = tested on: X 63 (mice lymphoma B); assay: Toxicity on nucleated cells, X 63 mice lymphoma B; assay type: cell-based; conditions: 1 hour 30, trypan blue, 90 min, read-out: LD 50 (concentration leading to a mortality of 50%)
[7] = Toxicity on nucleated cells, human bone marrow; assay type: cell-based; conditions: 1 hour 30, trypan blue, read-out: LD 50 (concentration leading to a mortality of 50%)
Protocol: as §1, §2, §3, §4, §5, §6

[8] = tested on: Aspergillus fumigatus; assay: Diffusion method in agar-agar medium (Sabouraud agar-agar); assay type: cell-based
Protocol: (§15) A.2 : Study of the antibiotic efficiency of amphotericine B derivatives in agar-agar medium against Aspergillus
(§16) The antibiotic activity was tested by the diffusion method in agar-agar medium (Sabouraud agar-agar).
(§17) The efficiency of each molecule was determined by the size of the growth-inhibiting zone around a WHATMAN 3M paper disc impregnated with the antibiotic substance of a given concentration.
(§18) A suspension of Aspergillus spores in a broth was prepared, 0.2 ml of this suspension was used to inoculate at its surface an agar-agar medium which was solidified in such a manner that a homogeneous growth layer was obtained. After spreading, the WHATMAN 3M paper discs (diameter: 1 cm) were placed on the surface of the agar-agar, and then impregnated with 0.1 ml of the antibiotic substance at different concentrations.

[9] = tested on: Aspergillus flavus; assay: as above; assay type: cell-based; conditions: Aspergillus flavus, read-out: concentration giving a growth inhibition of 1 cm around a disc in solid medium
Protocol: as §15, §16, §17, §18

[10] = tested on: PBL; assay: Toxicity on nucleated cells, human PBL; assay type: cell-based; conditions: human PBL, 1 hour 30, trypan blue; 90 min; read-out: LD 50 (concentration leading to a mortality of 50%)
Protocol: as §1, §2, §3, §4, §5, §6

[11] = Toxicity on nucleated cells, human thymocytes; assay type: cell-based; conditions: 1 hour 30, trypan blue, read-out: LD 50 (concentration leading to a mortality of 50%)
Protocol: as §1, §2, §3, §4, §5, §6

[12] = Toxicity on nucleated cells, mice thymocytes; assay type: cell-based; conditions: mouse, thymocytes, 1 hour 30, trypan blue, read-out: LD 50 (concentration leading to a mortality of 50%)
[13] = tested on: Candida albicans; assay: Growth inhibition in liquid medium (Sabouraud broth); assay type: cell-based; conditions: read-out: IC 50 (growth-inhibiting concentration of 50%)
Protocol: (§19) A.1 : Study of the antibiotic efficiency of AmB derivatives in liquid medium against different yeasts
(§20) The antibiotic efficiency was tested by the growth inhibition method in liquid medium (Sabouraud broth) in the presence of different concentrations of the derivatives studied.
(§21) A yeast suspension was cultivated in a broth in such a manner that about 1×10^2 cell/ml were obtained.
(§22) The tubes containing the different concentrations of antifungal substance were inoculated with the same amount of yeast cells, and were then incubated at 28° C. for 18 hours with stirring. For each concentration of antifungal substance, two identical tubes were prepared.
(§23) The inhibition of fungal growth corresponding to the different concentrations was evaluated for each molecule by spectrophotometry at 620 nm and expressed in percent with respect to a reference solution without antifungal substance.

[14] = tested on: Pytirosporum orbiculare; assay: as above; assay type: cell-based; conditions: read-out: IC 50 (growth-inhibiting concentration of 50%)
Protocol: as §19, §20, §21, §22, §23

[15] = tested on: Saccharomyces cerevisiae; assay: as above; assay type: cell-based; conditions: Saccharomyces cerevisiae, 18 h, read-out: IC 50 (growth-inhibiting concentration of 50%)
Protocol: as §19, §20, §21, §22, §23

[16] = tested on: Cryptoccocus neoformans; assay: as above; assay type: cell-based; conditions: read-out: IC 50 (growth-inhibiting concentration of 50%)
Protocol: as §19, §20, §21, §22, §23

[17] = background; cited from earlier work
[18] = Solubility of the AmB derivatives; assay type: physicochemical; conditions: 5% glucose solution, ambient temperature
Protocol: C.2. Solubility of the AmB derivatives according to the present invention
AmB or the derivatives obtained are dissolved at ambient temperature in a 5% glucose solution up to saturation.

[19] = tested on: Candida albicans B 2630; assay: Growth inhibition in liquid medium (Sabouraud broth); assay type: cell-based; conditions: B2630, 18 h, read-out: IC 50 (growth-inhibiting concentration of 50%)
Protocol: as §19, §20, §21, §22, §23

[20] = Toxicity on nucleated cells, human PBL; assay type: cell-based; conditions: human, pbl, human PBLs; AmB 12 derivative, comparison of different catalysts (Table 4); read-out: LD 50
Protocol: as §1, §2, §3, §4, §5, §6

[21] = Sabouraud agar-agar, disc diameter 1 cm, 0.1 ml
[22] = Sabouraud broth, 28° C., 18 hours

## CC1OC[C@@H](O)[C@H]([C@H](O)C(=O)CN[C@@H]2[C@H](O)[C@H](O[C@H]3/C=C/C=C/C=C/C=C/C=C/C=C/C=C/[C@H](C)[C@@H](O)[C@@H](C)[C@H](C)OC(=O)C[C@H](O)C[C@H](O)CC[C@@H](O)[C@H](O)C[C@H](O)C[C@]4(O)C[C@H](O)[C@@H](C(=O)O)[C@H](C3)O4)O[C@H](C)[C@H]2O)O1 (stereo partly drawn) [AmB 22 F, 1-deoxy-1-amino-4,6-O-ethylidene-D-fructosyl-AmB]
[1]
  CC50 at 1.5 h: 20 µM
[2]
  HC50 at 1.5 h: 100 µM
[3]
  CC50 at 1.5 h: > 1000 µM
[4]
  HC50: 90 µM
[5]
  CC50 at 1.5 h: 20 µM
[6]
  CC50: > 1000 µM
[7]
  CC50 at 1.5 h: 1000 µM
[8]; [21]
  concentration giving a growth inhibition of 1 cm around a disc in solid medium: 5 × 10^-4 molarity
[9]; [21]
  IC (1 cm inhibition zone): 150 µM
[10]
  CC50: > 1000 µM
[11]
  CC50 at 1.5 h: > 300 µM
[12]
  CC50 at 1.5 h: 3.5 µM
[13]; [22]
  IC50: 0.56 µM
[14]; [22]
  IC50: 0.18 µM
[15]; [22]
  IC50: 1.6 µM
[16]; [22]
  IC50: 0.25 µM

## C[C@@H]1[C@H](O)[C@@H](C)/C=C/C=C/C=C/C=C/C=C/C=C/C=C/[C@H](O[C@@H]2O[C@H](C)[C@@H](O)[C@H](N)[C@@H]2O)C[C@@H]2O[C@](O)(C[C@@H](O)C[C@@H](O)[C@H](O)CC[C@@H](O)C[C@@H](O)CC(=O)O[C@H]1C)C[C@H](O)[C@H]2C(=O)O [AmB, amphotericine B, reference compound]
[17]
  solubility in water (in words): sparingly soluble in water
[8]; Aspergillus fumigatus, read-out: concentration giving a growth inhibition of 1 cm around a disc in solid medium
  IC (1 cm inhibition zone): 50 µM
[9]
  IC (1 cm inhibition zone): 50 µM
[18]
  solubility (in words): insoluble
[13]; Candida albicans, 18 h
  IC50: 0.08 µM
[19]
  IC50: 0.35 µM
[14]; 18 h
  IC50: < 0.01 µM
[15]
  IC50: 0.54 µM
[16]; 18 h
  IC50: 0.08 µM

## C[C@@H]1[C@H](O)[C@@H](C)/C=C/C=C/C=C/C=C/C=C/C=C/C=C/[C@H](O[C@@H]2O[C@H](C)[C@@H](O)[C@H](NC3O[C@H](C(N)=O)[C@@H](O)[C@H](O)[C@H]3O)[C@@H]2O)C[C@@H]2O[C@](O)(C[C@@H](O)C[C@@H](O)[C@H](O)CC[C@@H](O)C[C@@H](O)CC(=O)O[C@H]1C)C[C@H](O)[C@H]2C(=O)O (some centres unmarked) [Uncatalyzed NMG salt, reference compound]
[20]
  CC50 at 1.5 h: 80 µM
